The values below come from paper PMC12019583 (Journal of Neurochemistry, 2025).

One may read the IC50 as the concentration needed to halve the response being measured. One may read the Ki as the equilibrium dissociation constant of an inhibitor or competing ligand from its target.

Series [1] has as its target T1, human SERT (Homo sapiens, UniProt P31645). Description: Uptake inhibition of [3H]5-HT in HEK293 cells stably expressing YhSERT. The following applies: for IC50: [3H]5-HT uptake, read-out: SERT IC50 ± SD. Format: cell-based. As for the experimental part: (§1) The cells were cultured in a humidified atmosphere (37°C, 5% CO2) on standard plastic culture ware. To maintain the selection pressure for the stable cell lines, 150 units/mL Geneticin was added. Cells were typically not passaged over 25 times.
(§2) After 10 min, the preincubation solution was replaced by 0.05 mL/well KHB still containing the substance of interest and tritiated substrate additionally (50 nM [^3H]MPP^+ for the YhDAT; 100 nM [^3H]5HT for the YhSERT; 30 nM [^3H]GABA for the YhGAT1, hGAT3 and YrGAT1 and 20 nM [^3H]MPP^+ for the hNET) maintaining UV light treatment/no additional light treatment. Substrate uptake was stopped after 1 min (for [^3H]5HT) or 3 min (for [^3H]GABA and [^3H]MPP^+), respectively, by exchange of the substrate‐containing buffer with 0.2 mL/well ice‐cold KHB. The KHB was aspirated immediately, and the cells were lysed in 0.2 mL 1% SDS, transferred to 6‐mL scintillation vials, and assayed for [^3H] content by liquid scintillation counting.
(§3) Data from uptake experiments were subjected to non‐linear, least squares curve fitting to equations for a rectangular hyperbola using a Marquardt–Levenberg algorithm (GraphPad Prism v.9).

The target in series [2] is hNET (Homo sapiens, UniProt P23975). Description: Uptake inhibition of [3H]MPP+ in HEK293 cells stably expressing hNET. Format: cell-based. The following applies: for loss in affinity at NET in comparison with paroxetine (factor): basal light; for reduction in IC50 by optical switching at NET: basal vs 365 nm; for IC50: [3H]MPP+ uptake, read-out: NET IC50 ± SD. How it is done: as §1, §2, §3

In series [3] the target is human DAT (Homo sapiens, UniProt Q01959). Description: Uptake inhibition of [3H]MPP+ in HEK293 cells stably expressing YhDAT. Format: cell-based. The following applies: for loss in affinity at DAT in comparison with paroxetine (factor): basal light; for effect of optical switching on inhibitory potency at DAT: basal vs 365 nm; for IC50: [3H]MPP+ uptake, read-out: DAT IC50 ± SD. How it is done:
as §1, §2, §3

The target of series [4] is T2, rat GAT1 (Rattus norvegicus, UniProt P23978).
T2 construct: expressed in transfected cells
Description: Uptake inhibition of [3H]GABA in HEK293 cells expressing YrGAT1. Format: cell-based. The following applies: for IC50: [3H]GABA uptake, read-out: rGAT IC50 ± SD. How it is done:
as §1, §2, §3

The target in series [5] is T3, human GAT1 (Homo sapiens, UniProt P30531).
T3 construct: expressed in transfected cells; host or cells: HEK293
In words: Uptake inhibition of [3H]GABA in HEK293 cells expressing YhGAT1. The series is classed as cell-based. The following applies: for IC50: [3H]GABA uptake, read-out: hGAT1 IC50 ± SD. As for the experimental part:
as §1, §2, §3

For series [6], the target named is T4, human GAT3 (Homo sapiens, UniProt P48066).
T4 construct: expressed in transfected cells; host or cells: HEK293
T4 sequence (P48066 1-632): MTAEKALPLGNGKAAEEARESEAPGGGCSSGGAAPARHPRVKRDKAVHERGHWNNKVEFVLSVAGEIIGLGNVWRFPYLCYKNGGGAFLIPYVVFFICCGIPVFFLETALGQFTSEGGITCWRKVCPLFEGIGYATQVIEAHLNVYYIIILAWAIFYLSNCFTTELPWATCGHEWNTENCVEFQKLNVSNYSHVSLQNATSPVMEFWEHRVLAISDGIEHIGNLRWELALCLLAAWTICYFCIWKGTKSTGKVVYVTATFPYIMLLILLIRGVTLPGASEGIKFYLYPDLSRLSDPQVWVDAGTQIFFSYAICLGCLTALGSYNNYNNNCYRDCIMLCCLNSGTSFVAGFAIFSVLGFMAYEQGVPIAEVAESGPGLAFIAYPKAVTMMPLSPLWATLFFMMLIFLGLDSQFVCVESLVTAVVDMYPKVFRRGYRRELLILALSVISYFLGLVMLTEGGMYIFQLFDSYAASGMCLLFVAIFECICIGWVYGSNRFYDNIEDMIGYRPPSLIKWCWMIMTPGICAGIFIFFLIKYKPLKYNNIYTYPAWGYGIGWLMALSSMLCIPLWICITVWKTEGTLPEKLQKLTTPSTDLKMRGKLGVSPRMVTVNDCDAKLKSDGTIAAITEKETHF
In words: Uptake inhibition of [3H]GABA in HEK293 cells expressing hGAT3. The series is classed as cell-based. As to conditions: for IC50: [3H]GABA uptake, read-out: hGAT3 IC50 ± SD. How it is done: as §1, §2, §3

In series [7] the target is T1, human SERT. Description: Whole-cell patch-clamp recordings of 5-HT-induced currents in HEK293 cells expressing human SERT. The following applies: for effect on serotonin-induced inwardly directed current: 10 μM, 5-HT 10 μM. Format: cell-based. How it is done: Whole‐cell patch‐clamp recordings were performed as recently described (Niello et al. [2023]). HEK293 cells stably expressing wild‐type GFP‐tagged human SERT were seeded at low density on poly‐D‐lysine‐coated dishes. Twenty hours after seeding, these cells were subjected to patch‐clamp recordings in the whole‐cell configuration. […] The internal solution in the patch pipette contained 133 mM potassium gluconate (CH2OH(CHOH)4COOK), 5.9 mM NaCl, 1 mM CaCl2, 0.7 mM MgCl2, 10 mM HEPES, 10 mM EGTA (pH adjusted to 7.2 with KOH). Drugs were applied using a 4‐tube ALA perfusion manifold (NPI Electronic GmbH, Germany) and a DAD‐12 superfusion system (Adams & List, Westbury, NY, USA) allowing for complete solution exchange around the cells within 100 ms. Currents were recorded via an Axopatch 200B amplifier (MDS Analytical Technologies, Sunnyvale, California) and analyzed using Clampfit 10.2 software. Passive holding currents were subtracted, and the traces were filtered using a 100 Hz digital Gaussian low‐pass filter.
(§4) The symbols represent three to four experiments performed in triplicate on different days, the error bars denote standard deviation. The red curves indicate the conditions promoting the optical switching (at a wavelength of 365 nm), the black curves indicate standard illumination. […] The rate of current recovery upon removal of (Z)‐9 from the bath solution (i.e., k off) was estimated by a fit of a monoexponential function to the current trace (see solid red line). […] Panel d: Viability assay employing trypan blue. […] PAR = paroxetine.
(Patch clamp records ionic current or voltage across a cell membrane.)

For series [8], the system named is HEK293 cells. Description: Viability assay employing trypan blue. Format: cell-based, human. As to conditions: dose-dependent, up to high concentrations, DMSO positive control.
Description: as §4

A short description of series [9]: UHPLC-TOF-MS quantification of (E)/(Z) isomer content in photostationary state. Format: physicochemical. The following applies: after irradiation 365 nm 30 s; 10 μM; several solvents (DMSO and aqueous). How it is done: Additionally, quantification measurements with UHPLC‐TOF‐MS were conducted to determine the efficiency of the (E) to (Z) isomerization of azo‐paroxetine. […] Moreover, biological uptake inhibition assay conditions were mimicked during the switching experiments by choosing respective solvents and sample concentrations. Samples representing the dark state were taken before irradiation, samples representing the (Z)‐state were obtained after irradiation with […] (intensity 600 mW/cm^2 10 mm focusing lens, λ 365 nm) for 30 s. […] Bandara and Burdette [2012]). […] Switching concentration 10 μM, concentration in UHPLC‐TOF‐MS sample 1 μM, UHPLC‐TOF‐MS sample preparation with water/acetonitrile 90/10.

The nature of series [10]: Thermal (Z)/(E) isomerization half-life by UV/Vis. Format: physicochemical. The following applies: (Z)-isomer; 50 μM in dry DMSO, 23 °C; read-out: half-life time of thermal (Z)/(E) isomerization (converted). As for the experimental part:
The rough experimental half-life time of the ( Z)-isomer of compound 9 was determined on a UV-1800 UV/Vis spectrophotometer from Shimadzu at 23 °C. A 50 μM sample of the compound in dry DMSO was irradiated with 365 nm for 5 seconds using the respective OmniCure® LED head at 100% power. Once the highest possible (Z)-isomer content was reached, the absorption at 331 nm, the ( E)-isomer’s absorption maximum l max, was regularly measured over the course of 12 hours. […]
of the thermal ( Z)/(E) isomerization.
A mathematical fitting function was used to linearize the obtained absorption data over time according to Equation S1.
AAllllllllllllllllllll = ln (AAmmllmm − AAtt )
Equation S1. Linear fit used for absorption AA .
The linearized absorption value gained by equation S1 was plotted over time and a linear fit function was applied. The obtained fit function gave the rate constant k as its slope value.
Next, the half- life time was calculated according to Equation S2. The resulting graph is shown […]
Equation S2. Calculation of half-life ττ1/2 time from rate constant kk .
This method of thermal half- life time determination wa s sufficiently precise for the […]
been shown (Singer et al, 2023) to yield similar results as compiling an Eyring plot for half-life time determination without the compound relax ing back to nearly 100% (E)-isomer.
Graph S1. […]

The target of series [11] is NET. The arrangement: method as in Kristensen et al. [2011]; Owens et al. [2001]. As to conditions: ref Kristensen et al. [2011]; Owens et al. [2001]; cited from earlier work.

“And” between values parts separate entries of the source, which are not always exact repeats. Identical values can stand only once. Like-named read-outs stand apart in the source and are kept apart here.

Chain of human DAT (Q01959 whole entry): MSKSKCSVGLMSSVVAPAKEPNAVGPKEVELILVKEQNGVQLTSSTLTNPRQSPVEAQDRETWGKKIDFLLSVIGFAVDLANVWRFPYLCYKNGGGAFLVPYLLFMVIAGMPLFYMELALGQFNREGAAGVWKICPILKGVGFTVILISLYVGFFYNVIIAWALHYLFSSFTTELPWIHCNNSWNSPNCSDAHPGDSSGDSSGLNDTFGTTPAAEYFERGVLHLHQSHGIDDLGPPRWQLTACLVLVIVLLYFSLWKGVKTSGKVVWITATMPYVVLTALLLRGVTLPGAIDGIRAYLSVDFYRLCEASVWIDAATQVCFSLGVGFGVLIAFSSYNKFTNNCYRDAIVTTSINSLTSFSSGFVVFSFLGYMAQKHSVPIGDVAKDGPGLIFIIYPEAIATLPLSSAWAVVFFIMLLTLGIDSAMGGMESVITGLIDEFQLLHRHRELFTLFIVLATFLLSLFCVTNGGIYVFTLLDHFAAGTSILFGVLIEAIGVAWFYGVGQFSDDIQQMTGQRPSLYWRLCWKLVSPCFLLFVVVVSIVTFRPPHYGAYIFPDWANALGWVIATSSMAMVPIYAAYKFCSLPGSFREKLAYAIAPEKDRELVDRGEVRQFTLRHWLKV
Chain of hNET (P23975 whole entry): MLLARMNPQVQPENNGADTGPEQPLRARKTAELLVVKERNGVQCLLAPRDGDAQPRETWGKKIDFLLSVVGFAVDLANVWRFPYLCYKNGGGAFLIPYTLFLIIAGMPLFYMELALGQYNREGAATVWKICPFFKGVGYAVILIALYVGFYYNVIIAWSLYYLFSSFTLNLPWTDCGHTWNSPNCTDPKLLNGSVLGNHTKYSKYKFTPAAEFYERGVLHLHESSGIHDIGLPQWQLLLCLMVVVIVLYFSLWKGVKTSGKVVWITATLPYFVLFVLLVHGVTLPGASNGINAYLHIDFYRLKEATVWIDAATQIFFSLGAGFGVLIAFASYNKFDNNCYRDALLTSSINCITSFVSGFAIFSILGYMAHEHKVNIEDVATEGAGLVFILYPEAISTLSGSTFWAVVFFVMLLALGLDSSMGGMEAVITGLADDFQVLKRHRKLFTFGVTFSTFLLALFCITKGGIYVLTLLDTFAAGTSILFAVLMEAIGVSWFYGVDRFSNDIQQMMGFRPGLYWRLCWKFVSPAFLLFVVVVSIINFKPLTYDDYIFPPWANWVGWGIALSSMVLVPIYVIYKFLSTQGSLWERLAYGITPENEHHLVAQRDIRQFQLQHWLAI
T3 sequence (P30531 whole entry): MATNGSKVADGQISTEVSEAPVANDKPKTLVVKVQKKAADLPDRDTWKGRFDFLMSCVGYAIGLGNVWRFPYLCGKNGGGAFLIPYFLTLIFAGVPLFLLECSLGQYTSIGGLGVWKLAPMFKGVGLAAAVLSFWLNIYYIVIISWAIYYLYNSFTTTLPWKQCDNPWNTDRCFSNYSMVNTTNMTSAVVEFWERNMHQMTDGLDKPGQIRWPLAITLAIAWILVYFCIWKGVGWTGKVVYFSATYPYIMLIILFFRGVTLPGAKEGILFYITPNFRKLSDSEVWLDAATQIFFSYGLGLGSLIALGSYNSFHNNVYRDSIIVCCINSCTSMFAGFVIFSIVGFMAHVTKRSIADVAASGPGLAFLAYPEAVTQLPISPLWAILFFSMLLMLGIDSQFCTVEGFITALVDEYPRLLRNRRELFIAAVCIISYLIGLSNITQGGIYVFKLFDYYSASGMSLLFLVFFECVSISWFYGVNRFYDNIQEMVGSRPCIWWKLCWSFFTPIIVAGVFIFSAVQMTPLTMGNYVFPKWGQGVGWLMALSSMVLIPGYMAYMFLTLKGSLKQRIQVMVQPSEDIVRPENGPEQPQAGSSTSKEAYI
T1 sequence (P31645 whole entry): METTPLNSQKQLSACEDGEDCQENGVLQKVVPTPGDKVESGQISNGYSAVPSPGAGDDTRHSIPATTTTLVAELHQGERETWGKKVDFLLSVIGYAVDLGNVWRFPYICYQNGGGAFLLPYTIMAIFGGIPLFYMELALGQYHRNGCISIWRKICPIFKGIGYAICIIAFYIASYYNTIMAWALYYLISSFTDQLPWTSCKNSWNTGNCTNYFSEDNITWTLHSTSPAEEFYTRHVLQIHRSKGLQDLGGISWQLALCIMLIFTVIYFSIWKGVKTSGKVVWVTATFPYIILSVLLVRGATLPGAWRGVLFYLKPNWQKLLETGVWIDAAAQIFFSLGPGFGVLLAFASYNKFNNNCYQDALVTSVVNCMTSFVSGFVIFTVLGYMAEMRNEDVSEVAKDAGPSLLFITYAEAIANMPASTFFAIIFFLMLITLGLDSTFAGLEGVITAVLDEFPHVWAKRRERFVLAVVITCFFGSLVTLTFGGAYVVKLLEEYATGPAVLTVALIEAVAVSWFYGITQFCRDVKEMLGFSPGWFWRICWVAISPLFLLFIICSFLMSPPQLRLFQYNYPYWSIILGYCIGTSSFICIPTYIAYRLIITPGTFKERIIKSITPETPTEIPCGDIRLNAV

`c1ccc(/N=N/c2ccc([C@@H]3CCNC[C@H]3COc3ccc4c(c3)OCO4)cc2)cc1` [Azo‐paroxetine (9)]: the “loss in affinity at SERT in comparison with parent compound paroxetine (factor)” value in series [1] (basal light) was found to be 171 fold. For the same compound, the IC50 in [1] (λ 365 nm (PSS, mainly (Z)-isomer)) was found to be 0.76 ± 0.18 µM; in series [1] (λ basal (standard light, (E)-isomer)), 9.23 ± 3.06 µM; in [2] (λ 365 nm), 5.41 ± 3.32 µM; in series [2] (λ basal) it was 15.4 ± 4.04 µM; in series [3] (λ 365 nm), 3.77 ± 0.79 µM; in series [3] (λ basal) it was 6.33 ± 2.06 µM. Moreover, the IC50 in [4] (λ 365 nm) came to 126 ± 20.6 µM; in series [4] (λ basal) it was 88.9 ± 11.8 µM; in series [5] (λ 365 nm) it was 107 ± 15 µM; in [5] (λ basal), 80.8 ± 21.6 µM; in [6] (λ 365 nm) it was 90.5 ± 24.4 µM; in series [6] (λ basal), 55 ± 16.4 µM. The “loss in affinity at NET in comparison with paroxetine (factor)” value in [2] (listed as azo‐paroxetine) is listed as ~ 5; in series [2] (listed as azo‐paroxetine (9)) it was 2 to 5. The entries for the “reduction in IC50 by optical switching at NET” value in series [2] (listed as azo‐paroxetine) and in series [2] (listed as azo‐paroxetine (9)) were 2 to 3 fold and “~threefold”, respectively. The “loss in affinity at DAT in comparison with paroxetine (factor)” value in [3] (listed as azo‐paroxetine) is ~ 3.7; in [3] (listed as azo‐paroxetine (9)), 2 to 5. Moreover, the results for the “effect of optical switching on inhibitory potency at DAT” value in series [3] (listed as azo‐paroxetine) and in series [3] (listed as azo‐paroxetine (9)) were 2 to 3 fold and 1.7 fold, respectively. Besides, the “improvement of affinity at rat GAT1 relative to paroxetine” value in series [4] is “around two to three‐fold”. Further, the koff in series [7] (HEK293, photoequilibrated (365 nm) state, n = 5, read-out: off-rate (k off)) came to 0.18 ± 0.031 s⁻¹. The “effect on serotonin-induced inwardly directed current” value in [7] (photoequilibrated (365 nm)) is listed as “completely abolished the inwardly directed current”. Besides, the “cellular toxicity effects (trypan blue viability)” value in series [8] (listed as azo‐paroxetine) is “did not find any significant toxic impact”. Also, the “(Z)-isomer content in photostationary state” value in series [9] is 83%–87% and 83%. The half-life at 50 μM in series [10] was 156 h.

Turning to `c1ccc(/N=N/c2ccc([C@@H]3CCNC[C@H]3COc3ccc4c(c3)OCO4)cc2)cc1` [(E)‐azo‐paroxetine (9)], the “effect on serotonin-induced inwardly directed current” value in series [7] ((E)-isomer, standard light) is given as “marginal blockade”.

As to `Fc1ccc([C@@H]2CCNC[C@H]2COc2ccc3c(c2)OCO3)cc1` [Paroxetine, paroxetine, reference compound], the IC50 in [4] (λ basal) was found to be 264 ± 140 µM; in [5] (λ basal), 122 ± 81 µM; in [6] (λ basal), 51 ± 3.7 µM. Further, in series [11], the Ki is 0.156 ± 0.029 µM.

In the case of azobenzene [reference compound], the “inhibitory effect on [3H]5-HT uptake at human SERT” value in series [1] (concentrations up to 1 mM, basal and 365 nm) is reported as “could not really observe any significant inhibitory effects”. Moreover, the “inhibition of GABA uptake at rat GAT1” value in series [4] ((E)-configuration) is listed as “comparable to the value of the human GAT1”. Also, the “inhibition of GABA uptake at human GAT1” value in series [5] ((E)-configuration, up to 1 mM) is listed as “up to 40%”. Moreover, the “inhibition of GABA uptake at human GAT3” value in [6] (up to 1 mM) was “more than 60%”. For the same compound, the “cellular toxicity effects (trypan blue viability)” value in series [8] was “neither azo‐paroxetine (9) nor azobenzene”.
